Test [1] has as its target T1, EGFR L858R/T790M (H1975-clone #36, homozygous) (Homo sapiens, UniProt P00533, L858R/T790M).
T1 construct: designed to specifically target WT EGFR but preserve the L858R/T790M copy; host or cells: H1975-clone #36
As to the kind of experiment: EGFR degradation HTRF assay, H1975-clone #36 cells. Format: cell-based. The conditions noted are these: H1975 #36, 16h treatment; for Dmax: NCI-H1975, maximum percentage of degradation. The method, then:
H1975-clone #36(L858R/T790M). H1975 cell heterozygously (from ATCC) contains alleles of WT and L858R/T790M EGFR. H1975-clone #36(L858R/T790M) was generated by gene knockout, in which the EGFR targeting sgRNA was designed to specifically target WT EGFR but preserve the L858R/T790M copy. Followed by the gene knockout, the edited H1975 cells were seeded in 96 well plates at the concentration of 1 cell/well, cultured for about 2 weeks to allow single clones formation. The formed clones were screened by DNA sequencing for the desired edition. H1975-clone #36 was confirmed as a homozygous L858R/T790M EGFR clone.
BaF3 WT(wild type), BaF3-LTC(L858R/T790M/C797S) and BaF3-DTC(Del19/T790M/C797S) cells are treated with compounds diluted in 0.2% DMSO cell culture medium and incubate for 16h, 37° C., 5% CO2, H1975-#36, H1975-#28, H1975-#23 and HCC827 cells are treated with compounds diluted in 0.2% DMSO cell culture medium on day 2, incubate for 16h, 37° C., 5% CO2.the final concentriation of compounds in all assay is start with 10 uM, 5-fold dilution, total 8 doses were included.
After 16h treatment, add HTRF lysis buffer to each well; seal the plate and incubate 1 hour at room temperature on a plate shaker; Once the cells are lysed, 16 μL of cell lysate are transferred to a PE 384-well HTRF detection plate; 4 μL of pre-mixed HTRF antibodies are added to each well; Cover the plate with a plate sealer, spin 1000 rpm for 1 min, Incubate overnight at room temperature; Read on BMG PheraStar with HTRF protocol (337 nm-665 nm-620 nm).
The inhibition (degradation) percentage of the compound was calculated by the following equation: Inhibition percentage of Compound=100-100×(Signal-low control)/(High control-low control), wherein signal=each test compound group
High control=Cell group with added DMSO and without compound, indicating microplate readings without EGFR degradation;
Dmax is the maximum percentage of inhibition (degradation).
The IC50 (DC50) value of a compound can be obtained by fitting the following equation
Y=Bottom+(TOP−Bottom)/(1+((IC50/X)^hillslope))
Wherein, X and Y are known values, and IC50, Hillslope, Top and Bottom are the parameters obtained by fitting with software. Y is the inhibition percentage (calculated from the equation), X is the concentration of the compound; IC50 is the concentration of the compound when the 50% inhibition is reached. The smaller the IC50 value is, the stronger the inhibitory ability of the compound is. Vice versa, the higher the IC50 value is, the weaker the inhibitory ability of the compound is; Hillslope represents the slope of the fitted curve, generally around 1*; Bottom represents the minimum value of the curve obtained by data fitting, which is generally 0%±20%; Top represents the maximum value of the curve obtained by data fitting, which is generally 100%±20%. The experimental data were fitted by calculating and analyzing with Dotmatics data analysis software.
(Time-resolved FRET reads energy transfer from a long-lived donor to a nearby acceptor.)

The target of test [2] is T2, EGFR (HCC827 cells) (Homo sapiens, UniProt P00533, DEL746-750).
T2 construct: endogenous in cells; host or cells: HCC827
T2 sequence (P00533 with tags, fused parts or gaps DEL746-750): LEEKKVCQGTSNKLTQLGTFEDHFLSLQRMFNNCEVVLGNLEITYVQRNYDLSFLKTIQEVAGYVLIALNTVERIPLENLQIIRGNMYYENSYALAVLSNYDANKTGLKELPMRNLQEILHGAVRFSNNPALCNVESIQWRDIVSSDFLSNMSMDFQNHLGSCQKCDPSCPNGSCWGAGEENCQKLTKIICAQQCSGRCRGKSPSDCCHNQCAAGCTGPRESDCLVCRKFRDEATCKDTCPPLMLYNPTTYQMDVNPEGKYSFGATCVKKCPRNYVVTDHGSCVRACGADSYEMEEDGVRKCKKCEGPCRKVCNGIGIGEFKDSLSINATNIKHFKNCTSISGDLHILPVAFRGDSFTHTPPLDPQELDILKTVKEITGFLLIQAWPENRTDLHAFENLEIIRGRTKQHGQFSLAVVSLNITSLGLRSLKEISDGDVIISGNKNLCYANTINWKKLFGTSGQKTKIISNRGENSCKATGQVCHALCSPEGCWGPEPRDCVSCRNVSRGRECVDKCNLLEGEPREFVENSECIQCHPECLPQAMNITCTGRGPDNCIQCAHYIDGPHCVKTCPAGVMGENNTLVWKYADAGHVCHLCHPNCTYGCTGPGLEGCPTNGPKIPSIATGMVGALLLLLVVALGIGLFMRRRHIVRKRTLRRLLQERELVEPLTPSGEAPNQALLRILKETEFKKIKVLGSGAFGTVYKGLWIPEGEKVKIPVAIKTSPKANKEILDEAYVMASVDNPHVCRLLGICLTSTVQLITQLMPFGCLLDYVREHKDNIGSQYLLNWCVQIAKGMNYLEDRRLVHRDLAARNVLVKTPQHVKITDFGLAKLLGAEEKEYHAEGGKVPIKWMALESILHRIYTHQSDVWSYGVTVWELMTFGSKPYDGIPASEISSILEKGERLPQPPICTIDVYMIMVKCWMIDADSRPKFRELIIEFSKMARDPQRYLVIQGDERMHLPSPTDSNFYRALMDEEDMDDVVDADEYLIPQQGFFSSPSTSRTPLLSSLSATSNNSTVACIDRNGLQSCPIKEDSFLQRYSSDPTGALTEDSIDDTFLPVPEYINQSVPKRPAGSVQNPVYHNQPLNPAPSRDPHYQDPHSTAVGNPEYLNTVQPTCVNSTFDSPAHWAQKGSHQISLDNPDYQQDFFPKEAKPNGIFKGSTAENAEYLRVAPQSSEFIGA
Nature of the test: EGFR degradation HTRF assay, HCC827 cells. The format is cell-based. Particulars: HCC827, 16h treatment; for Dmax: maximum percentage of degradation. Summed up:
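Cells treated 16 h at 37 °C, 5% CO2 in medium with 0.2% DMSO; top final concentration 10 uM, 5-fold dilution, 8 doses. Lysates read by HTRF (665/620 nm); degradation % versus DMSO high control, DC50 from four-parameter fit, Dmax as maximal degradation.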

Structures are written as SMILES. Counter-ions that a name gives are not always drawn. Some results are limits rather than exact numbers.

T1 sequence (P00533 25-1210 T790M/L858R): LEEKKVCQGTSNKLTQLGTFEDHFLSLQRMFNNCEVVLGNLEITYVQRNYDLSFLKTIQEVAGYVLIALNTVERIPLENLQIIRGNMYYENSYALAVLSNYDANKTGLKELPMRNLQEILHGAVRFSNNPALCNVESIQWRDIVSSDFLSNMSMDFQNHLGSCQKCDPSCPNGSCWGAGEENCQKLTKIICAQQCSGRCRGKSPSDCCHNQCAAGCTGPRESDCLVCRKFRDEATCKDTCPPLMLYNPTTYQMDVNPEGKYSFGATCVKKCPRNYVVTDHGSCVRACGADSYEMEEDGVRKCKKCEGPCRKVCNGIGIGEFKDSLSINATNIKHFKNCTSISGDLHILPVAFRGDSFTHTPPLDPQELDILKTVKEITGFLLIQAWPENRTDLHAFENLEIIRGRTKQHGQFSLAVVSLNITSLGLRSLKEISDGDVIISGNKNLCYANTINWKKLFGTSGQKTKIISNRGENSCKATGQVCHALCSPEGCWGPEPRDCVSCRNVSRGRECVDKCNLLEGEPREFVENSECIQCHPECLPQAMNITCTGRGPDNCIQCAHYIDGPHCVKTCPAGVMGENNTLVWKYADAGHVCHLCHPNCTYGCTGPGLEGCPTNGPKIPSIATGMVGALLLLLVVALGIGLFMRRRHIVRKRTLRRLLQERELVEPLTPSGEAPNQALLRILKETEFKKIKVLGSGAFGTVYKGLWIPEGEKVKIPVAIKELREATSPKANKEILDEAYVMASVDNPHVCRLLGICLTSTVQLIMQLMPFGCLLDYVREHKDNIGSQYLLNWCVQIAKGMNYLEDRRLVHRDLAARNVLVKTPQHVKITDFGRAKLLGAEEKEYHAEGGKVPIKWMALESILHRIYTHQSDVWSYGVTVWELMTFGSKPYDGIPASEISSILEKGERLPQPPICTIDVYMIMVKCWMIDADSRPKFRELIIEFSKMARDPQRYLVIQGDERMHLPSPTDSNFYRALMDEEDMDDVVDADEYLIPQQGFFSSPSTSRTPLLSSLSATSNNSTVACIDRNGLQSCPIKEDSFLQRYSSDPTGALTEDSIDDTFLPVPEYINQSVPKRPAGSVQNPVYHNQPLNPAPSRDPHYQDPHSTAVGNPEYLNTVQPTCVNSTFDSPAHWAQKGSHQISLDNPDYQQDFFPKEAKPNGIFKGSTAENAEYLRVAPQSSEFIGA

As to `CCc1cc(Nc2ncc(Br)c(Nc3ccc4nccnc4c3P(C)(C)=O)n2)c(OC)cc1N1CCC(N2CCN(CCOCCC(=O)N[C@H](C(=O)N3C[C@H](O)C[C@H]3C(=O)NCc3ccc(-c4scnc4C)cc3)C(C)(C)C)CC2)CC1` [Example 103, (2S,4R)-1-((S)-2-(3-(2-(4-(1-(4-((5-bromo-4-((5-(dimethylphosphoryl)quinoxalin-6-yl)amino)pyrimidin-2-yl)amino)-2-ethyl-5-methoxyphenyl)piperidin-4-yl)piperazin-1-yl)ethoxy)propanamido)-3,3-dimethylbutanoyl)-4-hydroxy-N-(4-(4-methylthiazol-5-yl)benzyl)pyrrolidine-2-carboxamide], in test [1], the DC50 (usually the concentration giving 50% degradation) turned out to be 43.1 nM and the Dmax (as a rule, the largest share of the target that was removed) worked out at 79.6%. In test [2], this compound registered a DC50 of 28.8 nM and a Dmax of 84.2%.

Consider `COc1cc(N2CCC(N3CCN(CCC4CCN(c5ccc(N6CCC(=O)NC6=O)c(F)c5)CC4)CC3)CC2)ccc1Nc1ncc(Cl)c(Nc2ccccc2N(C)S(C)(=O)=O)n1` [Example 125, N-(2-((5-chloro-2-((4-(4-(4-(2-(1-(4-(2,4-dioxotetrahydropyrimidin-1(2H)-yl)-3-fluorophenyl)piperidin-4-yl)ethyl)piperazin-1-yl)piperidin-1-yl)-2-methoxyphenyl)amino)pyrimidin-4-yl)amino)phenyl)-N-methylmethanesulfonamide], for which, in test [1], the DC50 is over 10000 nM and the maximal degradation (Dmax) amounted to 27.2%. In test [2], the DC50 came to 103 nM and the greatest degradation seen (Dmax) is 73.5%.

In test [1], `COc1cc(N2CCN(CC3CCN(c4ccc(N5CCC(=O)NC5=O)cc4F)CC3)CC2)c(C)cc1Nc1ncc(Br)c(Nc2ccc3nccnc3c2P(C)(C)=O)n1` [Example 97, 1-(4-(4-((4-(4-((5-bromo-4-((5-(dimethylphosphoryl)quinoxalin-6-yl)amino)pyrimidin-2-yl)amino)-5-methoxy-2-methylphenyl)piperazin-1-yl)methyl)piperidin-1-yl)-3-fluorophenyl)dihydropyrimidine-2,4(1H,3H)-dione] yielded a DC50 of over 10000 nM and a Dmax of 11.2%. In test [2], this compound displayed a DC50 of 118 nM and a Dmax of 62.8%.

With `COc1cc(N2CCC(N3CCN(C(=O)C4CCN(CC5CCN(c6ccc7c(c6)C(=O)N(C6CCC(=O)NC6=O)C7=O)CC5)CC4)CC3)CC2)ccc1Nc1ncc(Cl)c(Nc2ccccc2N(C)S(C)(=O)=O)n1` (centres unmarked) [Example 129, N-(2-((5-chloro-2-((4-(4-(4-(1-((1-(2-(2,6-dioxopiperidin-3-yl)-1,3-dioxoisoindolin-5-yl)piperidin-4-yl)methyl)piperidine-4-carbonyl)piperazin-1-yl)piperidin-1-yl)-2-methoxyphenyl)amino)pyrimidin-4-yl)amino)phenyl)-N-methylmethanesulfonamide], in test [1], the half-maximal degradation concentration (DC50) turned out to be 9.29 nM and the Dmax was 85.4%. In test [2], this compound yielded a DC50 of 11.1 nM and a Dmax of 87.2%.

Consider `COc1cc(N2CCN(C3CCN(CCc4ccc(C5CCC(=O)NC5=O)cc4)CC3)CC2)ccc1Nc1ncc(Cl)c(Nc2ccccc2N(C)S(C)(=O)=O)n1` (centres unmarked) [Example 120, N-(2-((5-chloro-2-((4-(4-(1-(4-(2,6-dioxopiperidin-3-yl)phenethyl)piperidin-4-yl)piperazin-1-yl)-2-methoxyphenyl)amino)pyrimidin-4-yl)amino)phenyl)-N-methylmethanesulfonamide hydrochloride], for which, in test [1], it took 5.22 nM to reach half-maximal degradation (DC50) and the Dmax amounted to 91.6%. Moreover, in test [2], half-maximal degradation (DC50) was put at 14.2 nM and the Dmax came out at 86.4%.

In test [1], `COc1cc(N2CCC(N(C)CC3CCN(c4ccc(N5CCC(=O)NC5=O)cc4)CC3)CC2)c(C)cc1Nc1ncc(Br)c(Nc2ccc3nccnc3c2P(C)(C)=O)n1` [Example 79, 1-(4-(4-(((1-(4-((5-bromo-4-((5-(dimethylphosphoryl)quinoxalin-6-yl)amino)pyrimidin-2-yl)amino)-5-methoxy-2-methylphenyl)piperidin-4-yl)(methyl)amino)methyl)piperidin-1-yl)phenyl)dihydropyrimidine-2,4(1H,3H)-dione] came in with a DC50 of over 10000 nM and a Dmax of 18.6%. In test [2], this compound had a DC50 of 17.5 nM and a Dmax of 72.1%.

In the case of `CCc1cc(Nc2ncc(Br)c(Nc3ccc4nccnc4c3P(C)(C)=O)n2)c(OC)cc1N1CCC(N2CCN(CC3CN(c4ccc5c(c4)C(=O)N(C4CCC(=O)NC4=O)C5=O)C3)CC2)CC1` (centres unmarked) [Example 59, 5-(3-((4-(1-(4-((5-bromo-4-((5-(dimethylphosphoryl)quinoxalin-6-yl)amino)pyrimidin-2-yl)amino)-2-ethyl-5-methoxyphenyl)piperidin-4-yl)piperazin-1-yl)methyl)azetidin-1-yl)-2-(2,6-dioxopiperidin-3-yl)isoindoline-1,3-dione], the DC50 in test [1] worked out at 1.62 nM; in test [2] it was 4.68 nM. In addition, the Dmax in test [1] worked out at 82.5%; in test [2], 85.2%.

Take `CCc1cc(Nc2ncc(Br)c(Nc3ccc4nccnc4c3P(C)(C)=O)n2)c(OC)cc1N1CCC(N2CCN(CC3CCN(c4ccc(C5CCC(=O)NC5=O)cc4)CC3)CC2)CC1` (centres unmarked) [Example 22, 3-(4-(4-((4-(1-(4-((5-bromo-4-((5-(dimethylphosphoryl)quinoxalin-6-yl)amino)pyrimidin-2-yl)amino)-2-ethyl-5-methoxyphenyl)piperidin-4-yl)piperazin-1-yl)methyl)piperidin-1-yl)phenyl)piperidine-2,6-dione]: in test [1], the DC50 is over 10000 nM and the greatest degradation seen (Dmax) was determined as 41.7%. In test [2], this compound had a 50% degradation concentration (DC50) of 6.26 nM and a Dmax of 67.5%.

In test [1], `COc1cc(N2CCN(CC3CCN(c4ccc(N5CCC(=O)NC5=O)cc4C)CC3)CC2)c(C)cc1Nc1ncc(Br)c(Nc2ccc3nccnc3c2P(C)(C)=O)n1` [Example 98, 1-(4-(4-((4-(4-((5-bromo-4-((5-(dimethylphosphoryl)quinoxalin-6-yl)amino)pyrimidin-2-yl)amino)-5-methoxy-2-methylphenyl)piperazin-1-yl)methyl)piperidin-1-yl)-3-methylphenyl)dihydropyrimidine-2,4(1H,3H)-dione] had a half-maximal degradation concentration (DC50) of over 10000 nM and a Dmax of 8.3%. In test [2], the DC50 stood at 166 nM and the Dmax amounted to 62.3%.

On to `COc1cc(N2CCC(N(C)CC3CCN(c4ccc(N5CCC(=O)NC5=O)c(F)c4)CC3)CC2)c(C)cc1Nc1ncc(Br)c(Nc2ccc3nccnc3c2P(C)(C)=O)n1` [Example 81, 1-(4-(4-(((1-(4-((5-bromo-4-((5-(dimethylphosphoryl)quinoxalin-6-yl)amino)pyrimidin-2-yl)amino)-5-methoxy-2-methylphenyl)piperidin-4-yl)(methyl)amino)methyl)piperidin-1-yl)-2-fluorophenyl)dihydropyrimidine-2,4(1H,3H)-dione], for which the DC50 in test [1] was over 10000 nM; in test [2], 25.8 nM. Also, the Dmax in test [1] was 5.13%; in test [2], 68.8%.

In test [1], `COc1cc(N2CCC(N3CCN(CCCOc4ccc(NC5CCC(=O)NC5=O)cc4)CC3)CC2)ccc1Nc1ncc(Cl)c(Nc2ccccc2NS(C)(=O)=O)n1` (centres unmarked) [Example 143, N-(2-((5-chloro-2-((4-(4-(4-(3-(4-((2,6-dioxopiperidin-3-yl)amino)phenoxy)propyl)piperazin-1-yl)piperidin-1-yl)-2-methoxyphenyl)amino)pyrimidin-4-yl)amino)phenyl) methanesulfonamide] showed a 50% degradation concentration (DC50) of 5.43 nM and a Dmax of 56.2%. Moreover, in test [2], the DC50 amounted to 12.1 nM and the Dmax came to 73%.
